MIC data for one compound are collected here from ChEMBL document CHEMBL5532634, “Oxazolidinone: A promising scaffold for the development of antibacterial drugs” (Eur J Med Chem, 2023).

The test system of the test is Mycobacterium tuberculosis. The experiment in a line: Antimycobacterial activity against multi-drug resistant Mycobacterium tuberculosis assessed as reduction in bacterial growth. It is filed as functional.

≈ marks a conversion by molar mass, not a printed value.

What is called MIC is the least concentration at which growth counts as inhibited. As to `CC(=O)NC[C@H]1CN(c2ccc(N3CCSCC3)c(F)c2)C(=O)O1` [SUTEZOLID], the MIC was 0.2 µg/mL (≈ 0.566 µM).
